Test results taken from PubChem BioAssay AID270 (DTP/NCI, 2004).
Values joined by “and” are separate entries in the source; they are usually repeats but may differ in a detail not shown here. Identical values can stand only once. Inconclusive results are not listed.

Tested on: BDF1 mice, s.c. Lewis lung carcinoma, T/C %
Assay: NCI In Vivo Anticancer Drug Screen. Data for tumor model Lewis Lung Carcinoma (subcutaneous) in B6D2F1 (BDF1) mice
In short: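 Tumor-bearing mice were treated with test compound, and either survival or tumor size was recorded. Values are the treated-group measurement divided by that of the vehicle-treated control group.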

Nc1ccccc1N
T/C (endpoint: median survival time, dose: 25.0 mg/kg/injection, schedule: Q02DX009 (ip), vehicle: saline with Tween-80, higher = longer survival): 112 % of control | T/C (endpoint: median survival time, dose: 50.0 mg/kg/injection, schedule: Q02DX009 (ip), vehicle: saline with Tween-80, higher = longer survival): 118 % of control | T/C (endpoint: median survival time, dose: 100.0 mg/kg/injection, schedule: Q02DX009 (ip), vehicle: saline with Tween-80, higher = longer survival): 97 % of control | T/C (endpoint: median survival time, dose: 200.0 mg/kg/injection, schedule: Q02DX009 (ip), vehicle: saline with Tween-80, higher = longer survival): 111 % of control

C1CCNCC1
T/C (endpoint: mean tumor weight, dose: 6.25 mg/kg/injection, schedule: Q01DX011 (ip), vehicle: saline, higher = larger tumour): 87 % of control | T/C (endpoint: mean tumor weight, dose: 12.5 mg/kg/injection, schedule: Q01DX011 (ip), vehicle: saline, higher = larger tumour): 87 % of control | T/C (endpoint: mean tumor weight, dose: 25.0 mg/kg/injection, schedule: Q01DX011 (ip), vehicle: saline, higher = larger tumour): 94 % of control | T/C (endpoint: mean tumor weight, dose: 50.0 mg/kg/injection, schedule: Q01DX011 (ip), vehicle: saline, higher = larger tumour): 73 % of control and 95 % of control | T/C (endpoint: mean tumor weight, dose: 100.0 mg/kg/injection, schedule: Q01DX011 (ip), vehicle: saline, higher = larger tumour): 83 % of control

COc1cc(NC(=O)CN(CCCl)CCCl)cc(OC)c1OC
T/C (endpoint: median survival time, dose: 50.0 mg/kg/injection, schedule: Q01DX009 (ip), vehicle: saline with Tween-80, higher = longer survival): 88 % of control | T/C (endpoint: median survival time, dose: 100.0 mg/kg/injection, schedule: Q01DX009 (ip), vehicle: saline with Tween-80, higher = longer survival): 98 % of control | T/C (endpoint: median survival time, dose: 200.0 mg/kg/injection, schedule: Q01DX009 (ip), vehicle: saline with Tween-80, higher = longer survival): 94 % of control

CC[C@H]1CN2CCc3cc(OC)c(OC)cc3[C@@H]2C[C@@H]1C[C@H]1NCCc2cc(O)c(OC)cc21
T/C (endpoint: mean tumor weight, dose: 1.25 mg/kg/injection, schedule: Q01DX011 (ip), vehicle: saline, higher = larger tumour): 94 % of control | T/C (endpoint: mean tumor weight, dose: 2.5 mg/kg/injection, schedule: Q01DX011 (ip), vehicle: saline, higher = larger tumour): 55 % of control | T/C (endpoint: mean tumor weight, dose: 5.0 mg/kg/injection, schedule: Q01DX011 (ip), vehicle: saline, higher = larger tumour): 37 % of control

CCCC1CCC(=C2C(=O)CCC2=O)O1 (configuration not stated)
T/C (endpoint: median survival time, dose: 3.13 mg/kg/injection, schedule: Q01DX009 (ip), vehicle: saline, higher = longer survival): 102 % of control | T/C (endpoint: median survival time, dose: 6.25 mg/kg/injection, schedule: Q01DX009 (ip), vehicle: saline, higher = longer survival): 111 % of control | T/C (endpoint: median survival time, dose: 12.5 mg/kg/injection, schedule: Q01DX009 (ip), vehicle: saline, higher = longer survival): 105 % of control | T/C (endpoint: median survival time, dose: 25.0 mg/kg/injection, schedule: Q01DX009 (ip), vehicle: saline, higher = longer survival): 101 % of control

CCOC(=O)C(CC(C)C)NC(=O)C(Cc1ccc(N(CCCl)CCCl)cc1)NC(C)=O (configuration not stated)
T/C (endpoint: median survival time, dose: 1.0 mg/kg/injection, schedule: Q01DX009 (ip), vehicle: saline with Tween-80, higher = longer survival): 88 % of control | T/C (endpoint: median survival time, dose: 2.0 mg/kg/injection, schedule: Q01DX009 (ip), vehicle: saline with Tween-80, higher = longer survival): 95 % of control | T/C (endpoint: median survival time, dose: 4.0 mg/kg/injection, schedule: Q01DX009 (ip), vehicle: saline with Tween-80, higher = longer survival): 111 % of control | T/C (endpoint: median survival time, dose: 8.0 mg/kg/injection, schedule: Q01DX009 (ip), vehicle: saline with Tween-80, higher = longer survival): 108 % of control | T/C (endpoint: median survival time, dose: 16.0 mg/kg/injection, schedule: Q01DX009 (ip), vehicle: saline with Tween-80, higher = longer survival): 116 % of control

COc1cc2c(cc1NC(=O)N(CCCl)N=O)-c1ccccc1C2
T/C (endpoint: median survival time, dose: 118.0 mg/kg/injection, schedule: Q01DX001 (ip), vehicle: saline with Tween-80, higher = longer survival): 93 % of control | T/C (endpoint: median survival time, dose: 177.0 mg/kg/injection, schedule: Q01DX001 (ip), vehicle: saline with Tween-80, higher = longer survival): 114 % of control | T/C (endpoint: median survival time, dose: 266.0 mg/kg/injection, schedule: Q01DX001 (ip), vehicle: saline with Tween-80, higher = longer survival): 106 % of control | T/C (endpoint: median survival time, dose: 400.0 mg/kg/injection, schedule: Q01DX001 (ip), vehicle: saline with Tween-80, higher = longer survival): 101 % of control | T/C (endpoint: median survival time, dose: 600.0 mg/kg/injection, schedule: Q01DX001 (ip), vehicle: saline with Tween-80, higher = longer survival): 90 % of control

CN1CC(=O)NC1=O
T/C (endpoint: mean tumor weight, dose: 2000.0 mg/kg/injection, schedule: Q01DX011 (ip), vehicle: saline, higher = larger tumour): 99 % of control and 124 % of control

C[N+](C)(C)CCOC(=O)/C=C/c1cnc[nH]1
T/C (endpoint: median survival time, dose: 5.0 mg/kg/injection, schedule: Q01DX009 (ip), vehicle: saline, higher = longer survival): 102 % of control | T/C (endpoint: median survival time, dose: 10.0 mg/kg/injection, schedule: Q01DX009 (ip), vehicle: saline, higher = longer survival): 94 % of control | T/C (endpoint: median survival time, dose: 20.0 mg/kg/injection, schedule: Q01DX009 (ip), vehicle: saline, higher = longer survival): 95 % of control

C[C@]12CC[C@@H]3c4ccccc4CC[C@H]3[C@@H]1CC[C@@H]2O
T/C (endpoint: mean tumor weight, dose: 43.8 mg/kg/injection, schedule: Q01DX011 (sc), vehicle: steriod suspending solution, higher = larger tumour): 71 % of control | T/C (endpoint: mean tumor weight, dose: 87.5 mg/kg/injection, schedule: Q01DX011 (sc), vehicle: steriod suspending solution, higher = larger tumour): 51 % of control | T/C (endpoint: mean tumor weight, dose: 125.0 mg/kg/injection, schedule: Q01DX011 (sc), vehicle: steriod suspending solution, higher = larger tumour): 120 % of control | T/C (endpoint: mean tumor weight, dose: 175.0 mg/kg/injection, schedule: Q01DX011 (sc), vehicle: steriod suspending solution, higher = larger tumour): 56 % of control | T/C (endpoint: mean tumor weight, dose: 250.0 mg/kg/injection, schedule: Q01DX011 (sc), vehicle: steriod suspending solution, higher = larger tumour): 45 % of control and 69 % of control | T/C (endpoint: mean tumor weight, dose: 350.0 mg/kg/injection, schedule: Q01DX011 (sc), vehicle: steriod suspending solution, higher = larger tumour): 32 % of control | T/C (endpoint: mean tumor weight, dose: 400.0 mg/kg/injection, schedule: Q01DX011 (sc), vehicle: steriod suspending solution, higher = larger tumour): 14 % of control | T/C (endpoint: mean tumor weight, dose: 600.0 mg/kg/injection, schedule: Q01DX011 (sc), vehicle: steriod suspending solution, higher = larger tumour): 22 % of control | T/C (endpoint: mean tumor weight, dose: 1000.0 mg/kg/injection, schedule: Q01DX011 (sc), vehicle: steriod suspending solution, higher = larger tumour): 35 % of control and 54 % of control
